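The compound was tested at five concentrations on cells cultured in 96-well plates, with a 48-hour exposure period. TGI denotes the concentration required for complete inhibition of growth.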
Legend:
Test in all cases: growth of human tumour cells (NCI), 48 h
[1] = tested on: HOP-62 NSCLC
[2] = tested on: OVCAR-4 ovarian
[3] = tested on: SF-268 CNS
[4] = tested on: M14 melanoma
[5] = tested on: OVCAR-8 ovarian
[6] = tested on: NCI-H522 lung
[7] = tested on: K-562 leukemia
[8] = tested on: HOP-92 NSCLC
[9] = tested on: UO-31 renal
[10] = tested on: NCI/ADR-RES ovarian
[11] = tested on: UACC-62 melanoma
[12] = tested on: SNB-19 CNS
[13] = tested on: SK-MEL-2 melanoma
[14] = tested on: EKVX NSCLC
[15] = tested on: A549 NSCLC
[16] = tested on: SR leukemia
[17] = tested on: MDA-N
[18] = tested on: BT-549 breast
[19] = tested on: MALME-3M melanoma
[20] = tested on: UACC-257 melanoma
[21] = tested on: HL-60(TB) leukemia
[22] = tested on: NCI-H226 lung
[23] = tested on: OVCAR-5 ovarian
[24] = tested on: NCI-H23 lung
[25] = tested on: SK-OV-3 ovarian
[26] = tested on: HT29 colon
[27] = tested on: HCC-2998 colon
[28] = tested on: SF-539 CNS
[29] = tested on: RXF 393 renal
[30] = tested on: LOX IMVI melanoma
[31] = tested on: ACHN renal
[32] = tested on: SN12C renal
[33] = tested on: HCT-15 colon
[34] = tested on: IGROV1 ovarian
[35] = tested on: SW-620 colon
[36] = tested on: MOLT-4 leukemia
[37] = tested on: KM12 colon
[38] = tested on: OVCAR-3 ovarian
[39] = tested on: COLO 205 colon
[40] = tested on: PC-3 prostate
[41] = tested on: SK-MEL-28 melanoma
[42] = tested on: T-47D breast
[43] = tested on: MCF7 breast
[44] = tested on: RPMI-8226 leukemia
[45] = tested on: HS 578T breast
[46] = tested on: MDA-MB-231 breast
[47] = tested on: NCI-H460 lung
[48] = tested on: DU-145 prostate
[49] = tested on: CAKI-1 renal
[50] = tested on: TK-10 renal
[51] = tested on: MDA-MB-435
[52] = tested on: SNB-75 CNS
[53] = tested on: U251 CNS
[54] = tested on: SF-295 CNS
[55] = tested on: HCT-116 colon
[56] = tested on: 786-0 renal
[57] = tested on: SK-MEL-5 melanoma
[58] = tested on: A498 renal
[59] = tested on: CCRF-CEM leukemia

O=C(Nc1ccc2ncccc2c1)c1cc2c(cc1Cl)Sc1nccn1S2(=O)=O
TGI [1]: 39.8 µM
TGI [2]: 73 µM
TGI [3]: 48.4 µM
TGI [4]: 29.8 µM
TGI [5]: 43.7 µM
TGI [6]: 24.5 µM
TGI [7]: 47 µM
TGI [8]: 76.7 µM
TGI [9]: 39.8 µM
TGI [10]: 47.6 µM
TGI [11]: 32.7 µM
TGI [12]: 34.6 µM
TGI [13]: 33.3 µM
TGI [14]: 39.1 µM
TGI [15]: 40.6 µM
TGI [16]: 45.2 µM
TGI [17]: 18.3 µM
TGI [18]: 41.2 µM
TGI [19]: 35.1 µM
TGI [20]: 47.8 µM
TGI [21]: 26.6 µM
TGI [22]: 35.4 µM
TGI [23]: 39.6 µM
TGI [24]: 32.5 µM
TGI [25]: 62.5 µM
TGI [26]: 31.3 µM
TGI [27]: 27.8 µM
TGI [28]: 57.4 µM
TGI [29]: 33.6 µM
TGI [30]: 34.2 µM
TGI [31]: 87.6 µM
TGI [32]: 33.3 µM
TGI [33]: 24.1 µM
TGI [34]: 29.3 µM
TGI [35]: 34.1 µM
TGI [36]: 45.5 µM
TGI [37]: 21.7 µM
TGI [38]: 47.6 µM
TGI [39]: 37.3 µM
TGI [40]: > 100 µM
TGI [41]: 42 µM
TGI [42]: 45.4 µM
TGI [43]: 35.2 µM
TGI [44]: 41 µM
TGI [45]: > 100 µM
TGI [46]: 45.1 µM
TGI [47]: 30.6 µM
TGI [48]: 31 µM
TGI [49]: 79.5 µM
TGI [50]: 69.4 µM
TGI [51]: 17.1 µM
TGI [52]: 30.7 µM
TGI [53]: 26.4 µM
TGI [54]: 42 µM
TGI [55]: 25.4 µM
TGI [56]: 27.9 µM
TGI [57]: 28.8 µM

NCCCN1CCN(c2ccccc2)CC1
TGI [1]: > 100 µM
TGI [2]: > 100 µM
TGI [3]: > 100 µM
TGI [4]: > 100 µM
TGI [5]: > 100 µM
TGI [6]: > 100 µM
TGI [7]: > 100 µM
TGI [8]: > 100 µM
TGI [9]: > 100 µM
TGI [10]: > 100 µM
TGI [11]: > 100 µM
TGI [12]: > 100 µM
TGI [13]: > 100 µM
TGI [14]: > 100 µM
TGI [15]: > 100 µM
TGI [16]: > 100 µM
TGI [17]: > 100 µM
TGI [18]: > 100 µM
TGI [19]: > 100 µM
TGI [20]: > 100 µM
TGI [22]: > 100 µM
TGI [23]: > 100 µM
TGI [26]: > 100 µM
TGI [29]: > 100 µM
TGI [30]: > 100 µM
TGI [31]: > 100 µM
TGI [32]: > 100 µM
TGI [33]: > 100 µM
TGI [34]: > 100 µM
TGI [36]: > 100 µM
TGI [37]: > 100 µM
TGI [58]: > 100 µM
TGI [38]: 87.7 µM
TGI [39]: > 100 µM
TGI [40]: > 100 µM
TGI [41]: > 100 µM
TGI [42]: > 100 µM
TGI [43]: > 100 µM
TGI [44]: > 100 µM
TGI [45]: > 100 µM
TGI [46]: > 100 µM
TGI [47]: > 100 µM
TGI [48]: > 100 µM
TGI [49]: > 100 µM
TGI [50]: > 100 µM
TGI [51]: > 100 µM
TGI [52]: > 100 µM
TGI [53]: > 100 µM
TGI [54]: > 100 µM
TGI [55]: > 100 µM
TGI [56]: > 100 µM
TGI [57]: > 100 µM

CC(=O)OC1CCC2(C)C(CCC3C4CC=C(C5(C)OCCO5)C4(C)CCC32)C1 (stereo not given)
TGI [1]: 44.1 µM
TGI [2]: 61 µM
TGI [3]: > 100 µM
TGI [59]: 38.4 µM
TGI [4]: 52.8 µM
TGI [5]: 48.8 µM
TGI [7]: > 100 µM
TGI [9]: 62 µM
TGI [10]: 46 µM
TGI [11]: 53.1 µM
TGI [12]: > 100 µM
TGI [13]: 37.4 µM
TGI [14]: 44.1 µM
TGI [15]: > 100 µM
TGI [16]: 54.2 µM
TGI [17]: 44 µM
TGI [18]: 45.8 µM
TGI [19]: 53.4 µM
TGI [20]: 40.2 µM
TGI [21]: 48.8 µM
TGI [22]: 66.8 µM
TGI [23]: 44.7 µM
TGI [24]: 66.6 µM
TGI [25]: > 100 µM
TGI [26]: 38.3 µM
TGI [28]: 42.7 µM
TGI [29]: 40.3 µM
TGI [30]: 32.8 µM
TGI [31]: > 100 µM
TGI [32]: 44.4 µM
TGI [33]: 80.6 µM
TGI [34]: 70.4 µM
TGI [35]: 45.6 µM
TGI [36]: 65.5 µM
TGI [37]: 67.4 µM
TGI [58]: 61.8 µM
TGI [38]: 44 µM
TGI [39]: 32.9 µM
TGI [40]: 54.2 µM
TGI [41]: 43 µM
TGI [42]: > 100 µM
TGI [43]: 53.9 µM
TGI [44]: 34.1 µM
TGI [45]: 60.1 µM
TGI [46]: > 100 µM
TGI [47]: 47.8 µM
TGI [48]: > 100 µM
TGI [49]: > 100 µM
TGI [50]: > 100 µM
TGI [51]: 47.9 µM
TGI [52]: 73.7 µM
TGI [53]: 39.4 µM
TGI [54]: 57.2 µM
TGI [55]: 45.3 µM
TGI [56]: 77.4 µM
TGI [57]: 28.9 µM

Source: PubChem BioAssay (NCI)
